ChEMBL document CHEMBL1201862, “PubChem BioAssay data set” (2004)
Active and inactive are the calls of the source.

How the values were obtained:
X-box-binding protein 1 = target: T1, X-box-binding protein 1 (Homo sapiens, UniProt P17861); assay type: functional, Cricetulus griseus;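 note: confirmatory dose-response counter-screen serving a CHOP assay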
T1 sequence (P17861 whole entry): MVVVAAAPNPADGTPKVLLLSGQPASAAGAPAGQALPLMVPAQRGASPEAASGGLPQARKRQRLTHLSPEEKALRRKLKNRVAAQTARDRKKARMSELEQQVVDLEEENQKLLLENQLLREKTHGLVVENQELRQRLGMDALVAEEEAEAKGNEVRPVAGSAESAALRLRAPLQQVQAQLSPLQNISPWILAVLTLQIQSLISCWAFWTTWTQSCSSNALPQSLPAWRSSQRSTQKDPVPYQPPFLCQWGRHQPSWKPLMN

Estrogen receptor beta = Estrogen receptor beta (Homo sapiens, UniProt Q92731); test: ERβ–SRC-3 coactivator interaction inhibitors, confirmation, orthogonal assay, biochemical, ELISA, streptavidin-HRP readout (AID 1060)
Bcl-2-like protein 10 = target: T2, Bcl-2-like protein 10 (Homo sapiens, UniProt Q9HD36); test: displacers of TR3 peptide from Bcl-B, primary screen, selectivity assay for Bfl-1 inhibitor project, biochemical, fluorescence polarization, FITC-TR3 peptide (AID 748);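 note: fluorescence polarization from a fluorescein-labelled TR3 peptide binding purified Bcl-B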
T2 sequence (Q9HD36 whole entry): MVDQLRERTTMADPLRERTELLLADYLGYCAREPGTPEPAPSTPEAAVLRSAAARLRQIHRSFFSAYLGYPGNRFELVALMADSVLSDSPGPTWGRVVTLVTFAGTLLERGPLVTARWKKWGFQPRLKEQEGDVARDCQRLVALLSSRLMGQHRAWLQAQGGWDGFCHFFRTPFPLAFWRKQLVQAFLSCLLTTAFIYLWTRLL

[1] = target: Intestinal-type alkaline phosphatase (Homo sapiens, UniProt P09923); test: Dose Response confirmation of uHTS hits from a small molecule inhibitors of human intestinal alkaline phosphatase via a luminescent assay. [Related pubchem assays (depositor defined):AID2544, AID2574]; assay type: functional
Cytochrome P450 2C9 = Cytochrome P450 2C9 (Homo sapiens, UniProt P11712); conditions: Potency
Cytochrome P450 2D6 = Cytochrome P450 2D6 (Homo sapiens, UniProt P10635); test: qHTS Assay for Inhibitors and Substrates of Cytochrome P450 2D6. [Related pubchem assays: 410 ]; assay type: ADME; conditions: read-out: Potency
Cytochrome P450 3A4 = Cytochrome P450 3A4 (Homo sapiens, UniProt P08684); conditions: Potency;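 note: confirmatory qHTS run detecting inhibitors and substrates of CYP3A4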
Estrogen receptor = target: T3, Estrogen receptor (Homo sapiens, UniProt P03372);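 note: potency for inhibiting coactivator peptide recruitment to the receptor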
T3 sequence (P03372 whole entry): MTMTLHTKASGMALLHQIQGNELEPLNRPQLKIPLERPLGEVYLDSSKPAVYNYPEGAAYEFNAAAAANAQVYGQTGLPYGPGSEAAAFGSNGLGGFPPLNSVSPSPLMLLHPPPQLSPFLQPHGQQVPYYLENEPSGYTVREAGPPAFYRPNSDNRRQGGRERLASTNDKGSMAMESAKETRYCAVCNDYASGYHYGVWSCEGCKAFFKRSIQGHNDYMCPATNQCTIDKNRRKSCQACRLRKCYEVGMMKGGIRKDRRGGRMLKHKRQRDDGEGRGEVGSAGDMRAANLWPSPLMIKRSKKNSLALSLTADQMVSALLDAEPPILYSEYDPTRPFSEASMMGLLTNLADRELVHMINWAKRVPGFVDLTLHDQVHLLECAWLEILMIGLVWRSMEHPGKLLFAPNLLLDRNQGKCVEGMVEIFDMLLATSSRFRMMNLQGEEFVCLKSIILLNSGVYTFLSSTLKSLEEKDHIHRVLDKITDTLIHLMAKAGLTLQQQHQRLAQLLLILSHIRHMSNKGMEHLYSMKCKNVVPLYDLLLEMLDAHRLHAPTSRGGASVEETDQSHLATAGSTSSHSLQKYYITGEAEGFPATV

Genome polyprotein = Genome polyprotein (dengue virus type 2, UniProt P29990); test: Dengue-2 NS5 methyltransferase inhibitors, primary screen, biochemical, confirmation dose response (AID 588689); assay type: functional
NS3 = NS3 (Hepatitis C virus, UniProt A3EZJ3); test: PubChem AID 2173; set-up: species or system Hepacivirus hominis
Prothrombin = Prothrombin (Bos taurus, UniProt P00735); test: thrombin inhibition, dose response, biochemical, fluorescence polarization, uHTS hits (AID 602369); assay type: functional
Troponin, cardiac muscle = Troponin, cardiac muscle (Homo sapiens, UniProt P19429+P45379+P63316); test: inhibitors of cardiac thin filament calcium sensitivity, dose response, biochemical, fluorescence, cardiac regulated thin filaments, triplicate IC50 (AID 504742); assay type: protein-complex assay
Large T antigen = Large T antigen (Simian virus 40, UniProt P03070); assay type: functional, Betapolyomavirus macacae;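 note: Confirmatory-stage PubChem screen for compounds that inhibit SV40 T antigen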
[2] = target: 72 kDa type IV collagenase (Homo sapiens, UniProt P08253); test: Dose Response validation of uHTS RPN11 inhibitor hits using a MMP-2 Fluorescence assay.; assay type: functional
ORF 73 = target: T4, ORF 73 (Human herpesvirus 8, UniProt O40947); test: inhibitors of C-LANA binding to LBS DNA, dose response, biochemical, fluorescence polarization, cherry-picked samples (AID 504725); set-up: species or system Human gammaherpesvirus 8;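 note: fluorescence polarization of a labeled DNA duplex reporting LANA DNA binding; potency is for inhibitors that block LANA binding to the DNA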
T4 sequence (O40947 whole entry): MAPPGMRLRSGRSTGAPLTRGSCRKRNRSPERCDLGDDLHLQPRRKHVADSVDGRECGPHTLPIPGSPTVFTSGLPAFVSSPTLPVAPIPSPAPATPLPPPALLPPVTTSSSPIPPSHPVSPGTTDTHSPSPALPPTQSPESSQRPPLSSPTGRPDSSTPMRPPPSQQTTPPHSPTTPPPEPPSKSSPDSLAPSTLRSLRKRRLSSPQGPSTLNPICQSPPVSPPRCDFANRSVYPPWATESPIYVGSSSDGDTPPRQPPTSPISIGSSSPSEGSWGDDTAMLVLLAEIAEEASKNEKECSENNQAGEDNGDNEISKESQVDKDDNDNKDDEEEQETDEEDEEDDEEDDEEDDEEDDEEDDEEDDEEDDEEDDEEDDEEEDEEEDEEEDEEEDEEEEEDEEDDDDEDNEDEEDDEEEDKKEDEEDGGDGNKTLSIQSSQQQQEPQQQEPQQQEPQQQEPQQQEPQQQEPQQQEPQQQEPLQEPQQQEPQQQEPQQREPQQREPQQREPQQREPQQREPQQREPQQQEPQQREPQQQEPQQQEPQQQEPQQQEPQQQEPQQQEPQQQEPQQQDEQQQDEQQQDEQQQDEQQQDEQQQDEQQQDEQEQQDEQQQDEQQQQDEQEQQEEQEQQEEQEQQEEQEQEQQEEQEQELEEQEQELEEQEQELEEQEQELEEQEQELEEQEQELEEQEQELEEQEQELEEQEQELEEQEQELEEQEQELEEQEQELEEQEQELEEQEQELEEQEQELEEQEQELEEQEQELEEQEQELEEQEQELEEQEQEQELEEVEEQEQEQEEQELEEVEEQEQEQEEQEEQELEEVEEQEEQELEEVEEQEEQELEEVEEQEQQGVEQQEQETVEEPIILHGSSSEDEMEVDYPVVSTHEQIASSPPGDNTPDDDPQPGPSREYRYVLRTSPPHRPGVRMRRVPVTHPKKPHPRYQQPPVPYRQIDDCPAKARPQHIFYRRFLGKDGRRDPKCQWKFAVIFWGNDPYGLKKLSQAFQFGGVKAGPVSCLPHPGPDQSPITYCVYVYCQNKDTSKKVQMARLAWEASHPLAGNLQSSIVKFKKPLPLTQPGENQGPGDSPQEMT

[3] = target: 26S proteasome non-ATPase regulatory subunit 14 (Homo sapiens, UniProt O00487); test: inhibition of proteasome subunit RPN11 – biochemical, fluorescence polarization, uHTS hits, confirmation (AID 602368); assay type: functional
[4] = Vero E6 cell cytotoxicity, dose response, cytotoxicity control for non-replicating M. tuberculosis project, secondary assay (AID 492998); assay type: functional, VeroE6; conditions: Vero C1008
INS1 = test: beta cell apoptosis inhibitors, cytokine rescue, dose response, luminescence, retest (AID 449756); assay type: functional, cell-based; conditions: Rattus norvegicus;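 note: cell death triggered by IL-1 beta plus TNF-alpha plus IFN-gamma mixture; protective hits raise ATP signal compared with cytokine alone wells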
[5] = THP-1 cell cytotoxicity, dose response, cytotoxicity control for non-replicating M. tuberculosis project (AID 489025); assay type: functional
[6] = HepG2 cell cytotoxicity, dose response, cytotoxicity control for non-replicating M. tuberculosis project (AID 489018); assay type: functional; conditions: Mycobacterium tuberculosis
cells = assay type: functional

In the case of `O=C(Oc1ccc(O)cc1)C12CC3CC(CC(C3)C1)C2`, the “Absolute IC50 (XBP1)” value (X-box-binding protein 1) is reported as 10 µM.
With `CCN1CCN(c2ccc(NC(=O)c3cccc4ncccc34)cc2)CC1` the IC50 (Estrogen receptor beta) was 121 nM (not active) and the IC50 (Bcl-2-like protein 10) was 50.1 µM (inactive).
With `O=C(NC1CCCCCC1)c1ccc(-n2cnnc2)cc1` the IC50 [1] was > 100 µM (inactive).
For `C=CCc1cccc(C2C(C)CCC3C(=O)N4C(CCC(C)C4c4cccc(CC=C)c4)C(=O)N32)c1` (centres undefined), the AC50 (Cytochrome P450 2C9) was 3.98 µM (inconclusive), the AC50 (Cytochrome P450 2D6) was 3.16 µM (inconclusive) and the AC50 (Cytochrome P450 3A4) was 200 nM (inconclusive).
In the case of `Cc1ccccc1NC(=O)CSc1nnc(-c2ccco2)c(-c2ccco2)n1`, the IC50 (Estrogen receptor) is reported as 14.9 µM (active), the IC50 (Estrogen receptor beta) is reported as 1980 nM (not active) and the IC50 (Genome polyprotein) is reported as 64.7 µM (active). The IC50 (NS3) was 8.62 µM (active) and the IC50 (Bcl-2-like protein 10) was 27.3 µM (active).
For `O=C(O)C(Cc1ccccc1)N1C(=O)/C(=C/C=C/c2ccco2)SC1=S` (centres undefined), the IC50 (Prothrombin) was 75.3 µM (active), the IC50 (Troponin, cardiac muscle) was > 71.5 µM (inactive) and the IC50 (Large T antigen) was 33.5 µM (active). The IC50 [2] was 947 nM (active), the AC50 (ORF 73) was 108 µM (active) and the IC50 [3] was 7.33 µM (active).
In the case of `C/C(N)=C(/C#N)C(=O)CSc1nc2ccccc2[nH]1`, the IC50 (Bcl-2-like protein 10) is reported as 22.3 µM (active).
For `C/C(=N\NC(=O)c1ccccc1OCc1ccc(F)cc1)c1ccccn1`, the CC50 [4] was 2.69 µM (active), the AC50 (INS1) was 1.83 µM (active) and the CC50 [5] was 765 nM (active). For the same molecule, the CC50 [6] was 3.6 µM (active) and the IC50 (cells) was 3.02 µM (active).
